How the values were obtained:
Format in all cases: in vivo, male DBA/1OlaHsd mice
[1] = test system: semi-established type II collagen arthritis; experiment: 35 day mouse semi-established type II collagen arthritis: body weight, disease incidence, clinical arthritis scores and AUC; settings: for Reduction of clinical arthritis scores expressed as area under the curve (AUC): days 18-34; for Reduction of clinical arthritis scores expressed as area under the curve (AUC) / Daily clinical arthritis scores: vs vehicle controls
Protocol: Mouse type II collagen arthritis is an art-recognized animal model for rheumatoid arthritis in humans (Bendele, 2001). […] Mice were terminated on day 34. […] Evaluation of serum anti-type II collagen antibody levels were also performed (groups 1-3, 6 and 8 only). All animals survived to study termination. • 1. […] Mice were anesthetized with Isoflurane and given 150 μl of Bovine Type II collagen in Freund's complete adjuvant injections (Sigma) containing bovine type II collagen (Elastin Products, Owensville, Mo.) (2 mg/ml) at the base of the tail (D0 and day 21). • 3. Mice were randomized by body weight into treatment groups on study day 18. • 4. MTX was provided by Bolder BioPATH, Inc. as a 1 mg/ml stock solution purchased from MWI and was prepared as a 0.05 mg/ml solution in 1% CMC for dosing at 10 ml/kg. • 5. All dose solutions were prepared to deliver at 10 ml/kg (0.3 ml/30 g) mouse. • 6. Treatment is initiated on study day 18 and continued once daily, every day (po, qd) according to Table 1. [table] • 7. During the period of treatment, clinical scores were given for each of the paws (right front, left front, right rear, left rear) according to Table 2. [table] • 8. On days 21-35, onset of arthritis occurred. Mice were weighed on arthritis days 18, 20, 22, 24, 26, 28, 30, 32, and prior to tissue collection on day 34 (final day). • 9. At necropsy, animals from all groups were bled via cardiac puncture for serum and terminated via cervical dislocation. Fore paws, hind paws and knees were removed and placed in 10% NBF. Whole blood was allowed to clot at room temperature for approximately 2 hours before being spun at 13,000 rpm for 8 minutes. • 10. Processing of Joints: Following 1-2 days in fixative and then 4-5 days in decalcifier, the joints were processed, embedded, sectioned and stained with toluidine blue and H&E (2 slides per animal). Only fore and hind paws and knees were processed initially (6 joints/mouse). • 11. Morphologic Pathology Methods: […] Hind paws, fore paws, and knees were embedded and sectioned in the frontal plane. Six joints from each animal were processed for histopathology elevation. • 12. Tissue Processing and Evaluation: • a. place joints in decalcifier, • b. trim joints, wash, process tissues, • c. embed joints, • d. section tissues, stain tissues, • e. histopathologic evaluation, and • f. data processing, QC, prepare graphs and report. Histopathologic Scoring Methods for Mouse Joints with Type II Collagen Arthritis Clinical data for paw scores (means for animal) were analyzed by determining the area under the dosing curve (AUC) for study days 18-34. For calculation of AUC, the daily mean scores for each mouse were entered into Microsoft Excel and the area between the treatment days after the onset of disease to the final day was computed. Means for each group were determined and the percent inhibition from arthritis controls was calculated by comparing values for treated and normal animals. […] Percent inhibition of clinical parameters and AUC is calculated using the following formula: % Inhibition=[…], where A=Mean Disease Control−Mean Normal • B=Mean Treated−Mean Normal Results

[2] = test system: semi-established type II collagen arthritis; experiment: Histopathology of fore paws, hind paws and knees in mouse type II collagen arthritis; settings: vs vehicle controls; for Paw histopathology, reduction of summed scores: 4 paws; for Six-joint mean histopathology, reduction of summed scores: four paws and two knees
Protocol: Mice were terminated on day 34. […] Evaluation of serum anti-type II collagen antibody levels were also performed (groups 1-3, 6 and 8 only). All animals survived to study termination. • 8. On days 21-35, onset of arthritis occurred. Mice were weighed on arthritis days 18, 20, 22, 24, 26, 28, 30, 32, and prior to tissue collection on day 34 (final day). • 9. At necropsy, animals from all groups were bled via cardiac puncture for serum and terminated via cervical dislocation. Fore paws, hind paws and knees were removed and placed in 10% NBF. Whole blood was allowed to clot at room temperature for approximately 2 hours before being spun at 13,000 rpm for 8 minutes. • 10. Processing of Joints: Following 1-2 days in fixative and then 4-5 days in decalcifier, the joints were processed, embedded, sectioned and stained with toluidine blue and H&E (2 slides per animal). Only fore and hind paws and knees were processed initially (6 joints/mouse). • 11. Morphologic Pathology Methods: […] Hind paws, fore paws, and knees were embedded and sectioned in the frontal plane. Six joints from each animal were processed for histopathology elevation. • 12. Tissue Processing and Evaluation: • a. place joints in decalcifier, • b. trim joints, wash, process tissues, • c. embed joints, • d. section tissues, stain tissues, • e. histopathologic evaluation, and • f. data processing, QC, prepare graphs and report. Histopathologic Scoring Methods for Mouse Joints with Type II Collagen Arthritis When scoring paws or ankles from mice with lesions of type II collagen arthritis, severity of changes as well as number of individual joints affected must be considered. When only 1-3 joints of the paws or ankles out of a possibility of numerous metacarpal/metatarsal/digit or tarsal/tibiotarsal joints were affected, an arbitrary assignment of a maximum score of 1, 2 or 3 for parameters below (Tables 3-6) was given depending on severity of changes. If more than 3 joints were involved, the criteria below (Tables 3-6) were applied to the most severely affected/majority of joints. [table] [table] [table] [table] For each animal, the inflammation, pannus, cartilage damage and bone damage scores was determined for each of the 6 joints submitted. A sum total (all 6 joints) animal score and a six joint mean animal score was determined as well as sums and means for each of the individual parameters. Data were also expressed as means for paws (4 joints) or knees (2 joints). Parameters for the various groups are then compared to disease control animals. Clinical data for paw scores (means for animal) were analyzed by determining the area under the dosing curve (AUC) for study days 18-34. For calculation of AUC, the daily mean scores for each mouse were entered into Microsoft Excel and the area between the treatment days after the onset of disease to the final day was computed. Means for each group were determined and the percent inhibition from arthritis controls was calculated by comparing values for treated and normal animals.

[3] = test system: serum anti-type II collagen antibody; experiment: Serum anti-type II collagen antibody levels in mouse type II collagen arthritis; settings: vs vehicle controls
Protocol: Mice were terminated on day 34. […] Evaluation of serum anti-type II collagen antibody levels were also performed (groups 1-3, 6 and 8 only). […] At necropsy, animals from all groups were bled via cardiac puncture for serum and terminated via cervical dislocation. […] Whole blood was allowed to clot at room temperature for approximately 2 hours before being spun at 13,000 rpm for 8 minutes. • 10. […] Histopathologic Scoring Methods for Mouse Joints with Type II Collagen Arthritis Serum analysis for anti-TTC levels was performed on mice from groups 1-3, 6, and 8 only.

## CCN(C(=O)c1c(O)c2c(Cl)cccc2n(C)c1=O)c1ccccc1 [Laquinimod]
[1]; 0.2 mg/kg Laquinimod po QD, by study day 28
  Disease incidence: 100%
[1]; 0.2 mg/kg Laquinimod po QD, d23
  Daily clinical arthritis scores prior to disease occurrence in the vehicle control group: significantly elevated
[1]; 0.2 mg/kg Laquinimod po QD
  Reduction of clinical arthritis scores expressed as area under the curve (AUC): 32%
[1]; 0.2 mg/kg Laquinimod po QD, significant d28-34
  Daily clinical arthritis scores: significantly reduced
[1]; 1 mg/kg Laquinimod po QD, at study termination
  Disease incidence: 90%
[1]; 1 mg/kg Laquinimod po QD, d22-24
  Daily clinical arthritis scores prior to disease occurrence in the vehicle control group: significantly elevated
[1]; 1 mg/kg Laquinimod po QD
  Reduction of clinical arthritis scores expressed as area under the curve (AUC): 52%
[1]; 1 mg/kg Laquinimod po QD, significant d25-34
  Daily clinical arthritis scores: significantly reduced
[1]; 5 mg/kg Laquinimod po QD
  Disease incidence: 70%
  Reduction of clinical arthritis scores expressed as area under the curve (AUC): 69%
[1]; 5 mg/kg Laquinimod po QD, d22-23
  Daily clinical arthritis scores prior to disease occurrence in the vehicle control group: significantly elevated
[1]; 5 mg/kg Laquinimod po QD, significant d24-34
  Daily clinical arthritis scores: significantly reduced
[2]; 1 mg/kg Laquinimod po QD
  Paw histopathology, reduction of summed scores: 61%
  Six-joint mean histopathology, reduction of summed scores: 60%
  Reduction of knee cartilage damage: 62%
  Reduction of knee inflammation: 51%
  Reduction of knee pannus: 59%
  Reduction of summed knee scores: 57%
[3]; 5 mg/kg Laquinimod po QD
  Serum Anti-TTC level: not significantly affected

## CN(Cc1cnc2nc(N)nc(N)c2n1)c1ccc(C(=O)N[C@@H](CCC(=O)O)C(=O)O)cc1 [MTX, Methotrexate]
[1]; MTX 0.5 mg/kg po QD, at study termination
  Disease incidence: 90%
[1]; MTX 0.5 mg/kg po QD
  Reduction of clinical arthritis scores expressed as area under the curve (AUC): 50%
[1]; MTX 0.5 mg/kg po QD, significant days 27-34
  Daily clinical arthritis scores: significantly reduced
[2]; MTX 0.5 mg/kg po QD
  Paw histopathology, reduction of summed scores: 46%
  Six-joint mean histopathology, reduction of summed scores: 43%
[3]; MTX 0.5 mg/kg po QD
  Serum Anti-TTC level: not significantly affected
